Where two headings read alike, the source gives them in different places.
Columns and labels:
Experiment in all cases: whole plant or invertebrate
Format in all cases: in vivo
[1] = system: Aphis craccivora; details: for mortality at 500 ppm: Aphis craccivora, 24 h, read-out: Aphis craccivora Mortality (%) 500 ppm; for Aphis craccivora Mortality (%) 500 ppm: wingless adults, impregnation method, 24 hours
Procedure: (3) Insecticidal Activity on Aphid Adults.
Aphid is a homoptera pest with a piercing-sucking mouthpart and is a common vegetable pest. Aphis craccivora were taken as test objects and tested by using an impregnation method.
Operation process: Samples were weighed accurately, and respectively added with 200 μL of dimethyl sulfoxide to prepare 10 g/L mother liquor which was diluted into a concentration of 500 ppm with an aqueous solution containing 0.05% of Tween-80 during the test. After the wingless Aphis craccivora adults stably sucked on bean sprouts, the wingless Aphis craccivora adults together with the bean sprouts were immersed into a liquid medicine with a concentration of 500 ppm, taken out after 5 seconds, air-dried naturally, transferred into a clean vessel, and fed at a constant temperature of 23° C. Each concentration was repeated 3 times, and an aqueous solution containing 0.05% of Tween-80 was used as a control group. After being treated for 24 hours, a number of dead Aphis craccivora was counted, and a mortality (%) was calculated according to a formula that mortality (%)=(number of live Aphis craccivora in the control group−number of treated live Aphis craccivora)/number of live Aphis craccivora in the control group*100%.

[2] = system: Solenopsis invicta; details: water test tube poison-feeding; for mortality at 100 ppm: Solenopsis invicta
Procedure: (4) Insecticidal Activity on Solenopsis invicta.
As a hymenoptera pests and a social insect, Solenopsis invicta is one of the most destructive invasive organisms. Solenopsis invicta were used as test objects and tested by using a water test tube poison-feeding method.
Operation process: Samples were weighed accurately, and respectively added with 200 μL of dimethyl sulfoxide to prepare 10 g/L mother liquor which was diluted into a concentration of 100 ppm with a mixed aqueous solution containing 0.05% of Tween-80 and 5% of honey during the test. […] The raising test tube was placed in a raising box horizontally, and a small amount of ham sausages were added to the raising test tube as food to raise the Solenopsis invicta at a constant temperature of 25° C. After being treated for 24 hours and 72 hours, a number of live Solenopsis invicta and a number of dead Solenopsis invicta were counted, and a mortality (%) was calculated according to a formula that mortality (%)=(number of live Solenopsis invicta in the control group−number of treated live Solenopsis invicta)/number of live Solenopsis invicta in the control group*100%.

[3] = system: Plutella xylostella; details: for mortality at 500 ppm: Plutella xylostella, read-out: Plutella xylostella Mortality (%) 500 ppm; for Plutella xylostella Mortality (%) 500 ppm: 2nd-instar larvae, leaf immersion feeding
Procedure: (1) Insecticidal Activity on 2nd-Instar Larvae of Plutella xylostella.
Plutella xylostella (L.) is a lepidoptera pest with a chewing mouthpart and is a common vegetable pest. The 2nd-instar larvae of Plutella xylostella were used as test objects and tested by using a leaf immersion feeding method.
(§1) Operation process: Samples were weighed accurately, and respectively added with 200 μL of dimethyl sulfoxide to prepare 10 g/L mother liquor which was diluted into a concentration of 500 ppm with an aqueous solution containing 0.05% of Tween-80 during the test. A hole puncher with a diameter of 1.0 cm was used to make cleaned cabbage leaves into leaf discs. The leaf discs were immersed in a liquid medicine, taken out after 5 seconds, air-dried naturally, and transferred into a clean vessel. About 35 2nd-instar larvae of Plutella xylostella were put into the vessel and fed at a constant temperature of 28° C. Each concentration was repeated 3 times, and an aqueous solution containing 0.05% of Tween-80 was used as a control group. After being treated for 24 hours, a number of dead Plutella xylostella was counted, and a mortality (%) was calculated according to a formula that mortality (%)=(number of live larvae in the control group−number of treated live larvae)/number of live larvae in the control group*100%.

[4] = system: Spodoptera exigua; details: for mortality at 500 ppm: Spodoptera exigua, 24 h, read-out: Spodoptera exigua Mortality (%) 500 ppm; for Spodoptera exigua Mortality (%) 500 ppm: 2nd-instar larvae, leaf immersion feeding, 24 hours
Procedure: (2) Insecticidal Activity on 2nd-Instar Larvae of Spodoptera exigua.
Spodoptera exigua is a lepidoptera pest with a chewing mouthpart and is a common vegetable pest. The 2nd-instar larvae of Spodoptera exigua were used as test objects and tested by using a leaf immersion feeding method.
as §1, with “μL,” for “μL”, “2nd -instar” for “2nd-instar”, “Spodoptera exigua” for “Plutella xylostella”, “group −number” for “group−number”, “group * 100%.” for “group*100%.”

[5] = 24 h, read-out: Solenopsis invicta Mortality (%) 100 ppm 24 h, 100 ppm, 24 h
[6] = 72 h, read-out: Solenopsis invicta Mortality (%) 100 ppm 72 h, 100 ppm, 72 h

Structure (SMILES)	mortality at 500 ppm [1] [%]	mortality at 100 ppm [2, 5] [%]	mortality at 100 ppm [2, 6] [%]	mortality at 500 ppm [3] [%]	mortality at 500 ppm [4] [%]	Aphis craccivora Mortality (%) 500 ppm [1] [%]	Solenopsis invicta Mortality (%) 100 ppm 24 h ([2]; 24 h) [%]	Solenopsis invicta Mortality (%) 100 ppm 72 h ([2]; 72 h) [%]	Plutella xylostella Mortality (%) 500 ppm [3] [%]	Spodoptera exigua Mortality (%) 500 ppm [4] [%]
CC(=O)c1nn2c(c1[S+](C)[O-])NC(CC(=O)O)(C(=O)O)c1cc(C(F)(F)F)cc(Cl)c1-2 (centres unmarked) [Compound C47]	80	27	87	77	86	–	–	–	–	–
COC(=O)CC1(C(=O)OC)Nc2c([S+](C)[O-])c(C(C)=O)nn2-c2c(Cl)cc(C(F)(F)F)cc21 (centres unmarked) [Compound C48]	79	26	86	76	85	–	–	–	–	–
CC(=O)c1nn2c(c1[S+](C)[O-])NC(CC(N)=O)(C(N)=O)c1cc(C(F)(F)F)cc(Cl)c1-2 (centres unmarked) [Compound C49]	90	20	81	87	89	–	–	–	–	–
N#Cc1nn2c(c1-c1ccccc1C(F)(F)F)NC(CCl)(C(O)CO)c1cc(C(F)(F)F)cc(Cl)c1-2 (centres unmarked) [Compound C53]	90	28	97	78	89	–	–	–	–	–
Cc1cc(-c2c(C#N)nn3c2NC(C(O)CO)(C(F)(F)F)c2cc(C(F)(F)F)cc(Cl)c2-3)c(C)o1 (centres unmarked) [Compound C54]	87	17	84	77	78	–	–	–	–	–
N#Cc1nn2c(c1[S+]([O-])C(F)(F)F)NC(CCl)(C(O)CO)c1cc(C(F)(F)F)cc(Cl)c1-2 (centres unmarked) [Compound C55]	91	19	83	88	80	–	–	–	–	–
N#Cc1nn2c(c1[S+]([O-])C(F)(F)F)NC(C(O)CO)(C(F)(F)F)c1cc(C(F)(F)F)cc(Cl)c1-2 (centres unmarked) [Compound C57]	80	20	89	78	76	–	–	–	–	–
CC[S+]([O-])c1c(C#N)nn2c1NC(/C=C/C(=O)OC)(CC#N)c1cc(C(F)(F)F)cc(Cl)c1-2 (centres unmarked) [Compound C59]	100	29	100	100	90	–	–	–	–	–
COC(=O)/C=C/C1(CC#N)Nc2c([S+](C)[O-])c(C(C)=O)nn2-c2c(Cl)cc(C(F)(F)F)cc21 (centres unmarked) [Compound C60]	100	25	92	90	92	–	–	–	–	–
CCc1nn2c(c1Br)NC(/C=C\C(=O)OC)(/C=C/C(=O)OC)c1cc(C(F)(F)F)cc(Cl)c1-2 (centres unmarked) [Compound C63]	96	29	98	98	90	–	–	–	–	–
COC(=O)CC1(C(=O)OC)Nc2c([S+]([O-])C(F)(F)F)c(C#N)nn2-c2ncc(C(F)(F)F)cc21 (centres unmarked) [a-1]	–	–	–	–	–	100	20	100	100	100
COC(=O)C1(CC#N)Nc2c([S+]([O-])C(F)(F)F)c(C#N)nn2-c2ncc(C(F)(F)F)cc21 (centres unmarked) [a-2]	–	–	–	–	–	100	19	98	97	97
CCOC(=O)CC1(C(=O)OCC)Nc2c([S+]([O-])C(F)(F)F)c(C#N)nn2-c2ncc(C(F)(F)F)cc21 (centres unmarked) [a-22]	–	–	–	–	–	100	30	100	100	100
